Data from patent US11059780B2, “Substituted pyrrolidine compound and use thereof” (Takeda Pharmaceutical Company Limited, priority 2017, dated 2021).

Each molecule was assayed against T1, human orexin type 2 receptor (hOX2R) (Homo sapiens, UniProt O43614) (assay: Measurement of orexin type 2 receptor agonist activity (Fluo-4 calcium fluorescence, CHO cells forcibly expressing human OX2 receptor)). Conditions: test compound 3 μM, DMSO = 0%, orexin A (human) 10 nM = 100%.
T1 construct: expressed in transfected cells
T1 sequence (O43614 1-444): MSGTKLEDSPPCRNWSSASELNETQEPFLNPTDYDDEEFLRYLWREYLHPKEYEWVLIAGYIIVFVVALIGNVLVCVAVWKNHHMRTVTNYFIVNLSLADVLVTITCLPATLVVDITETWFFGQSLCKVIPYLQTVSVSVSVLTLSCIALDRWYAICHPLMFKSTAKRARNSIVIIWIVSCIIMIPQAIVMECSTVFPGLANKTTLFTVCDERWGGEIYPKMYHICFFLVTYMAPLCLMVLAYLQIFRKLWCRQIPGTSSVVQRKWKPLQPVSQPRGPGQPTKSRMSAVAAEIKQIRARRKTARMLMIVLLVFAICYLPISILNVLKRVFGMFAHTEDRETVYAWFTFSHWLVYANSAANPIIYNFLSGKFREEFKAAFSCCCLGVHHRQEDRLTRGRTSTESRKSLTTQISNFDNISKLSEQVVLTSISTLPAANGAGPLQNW
Format: cell-based
Description: Experimental Example 1: Obtainment of Cell Stably Expressing Human Orexin Type 2 Receptor (hOX2R)
To obtain a cell clone stably expressing human orexin type 2 receptor, human orexin type 2 receptor cDNA was inserted into pcDNA3.1(+) plasmid vector (Invitrogen), and a plasmid DNA for expression of human orexin type 2 receptor (pcDNA3.1(+)/hOX2R) was cloned. The plasmid DNA was introduced into CHO-dhfr cell by an electroporation method, and human orexin type 2 receptor expressing clone cells were obtained by limiting dilution method by using G418 drug resistance as a selection marker.
Experimental Example 2: Measurement of Orexin Type 2 Receptor Agonist Activity
CHO cells forcibly expressing human OX2 receptor were seeded in each well of 384 well black transparent bottom plate (BD Falcon) at 7,500 cells/well, and cultured for one day in a 5% CO2 incubator at 37° C. After removal of the medium in the cell plate, assay buffer A containing a calcium indicator (HBSS (Life Technologies), 20 mM HEPES (Life Technologies), 0.1% BSA (Wako Pure Chemical Industries, Ltd.), 2.5 μg/mL Fluo-4 AM (DOJINDO Chemical), 0.08% Pluronic F127 (DOJINDO Chemical), 1.25 mM probenecid (DOJINDO Chemical)) was added at 30 μL/well. The plate was stood for 30 min in a 5% CO2 incubator at 37° C., and further stood at room temperature for 30 min. A test compound prepared by diluting with assay buffer B (HBSS, 20 mM HEPES, 0.1% BSA) was added at 10 μL/well, and the fluorescence value was measured by FDSSpCELL (Hamamatsu Photonics K.K.) every one sec for 1 min, and thereafter every two sec for 1 min 40 sec. The activity (%) of the test compound was calculated assuming that variation in the fluorescence value when DMSO was added instead of the test compound was 0% […], and variation in the fluorescence value when orexin A (human) (PEPTIDE INSTITUTE, INC.) was added at the final concentration of 10 nM was 100% […]. The activity of each compound at the concentration of 3 μM was shown below.

Row | OX2R agonist activity (3 μM, %) | Compound
1 | 82% | CO[C@@H]1CN(C(=O)c2cc(C)ccc2C)C[C@H]1Oc1cccc(NS(=O)(=O)N2CCCC2Cc2cccnc2)c1 (relative stereo) [Example 67, trans-N-(3-((1-(2,5-dimethylbenzoyl)-4-methoxypyrrolidin-3-yl)oxy)phenyl)-2-(pyridin-3-ylmethyl)pyrrolidine-1-sulfonamide]
2 | 102% | CO[C@@H]1CN(C(=O)c2cc(C)ccc2C)C[C@H]1Oc1cccc(CS(=O)(=O)N2CCCC2c2ccc(C)nc2C)c1 (relative stereo) [Example 123, trans-(2,5-dimethylphenyl)(3-(3-(((2-(2,6-dimethylpyridin-3-yl)pyrrolidin-1-yl)sulfonyl)methyl)phenoxy)-4-methoxypyrrolidin-1-yl)methanone]
3 | 100% | CO[C@@H]1CN(C(=O)c2cc(C)ccc2C)C[C@H]1Oc1cccc(CS(=O)(=O)N2CCCC2c2cccnc2C)c1 (relative stereo) [Example 114, trans-(2,5-dimethylphenyl)(3-methoxy-4-(3-(((2-(2-methylpyridin-3-yl)pyrrolidin-1-yl)sulfonyl)methyl)phenoxy)pyrrolidin-1-yl)methanone]
4 | 75% | COC1CN(C(=O)c2cc(C)ccc2C)CC1Oc1cccc(NS(=O)(=O)N2C[C@H]3C[C@H]2C3)c1 (relative stereo) [Example 64, trans-N-(3-((1-(2,5-dimethylbenzoyl)-4-methoxypyrrolidin-3-yl)oxy)phenyl)-2-azabicyclo[2.1.1]hexane-2-sulfonamide]
5 | 109% | CCc1cccc(C)c1C(=O)N1C[C@@H](OC)[C@H](Oc2cccc(CS(=O)(=O)N(C)C3CCOC(C)(C)C3)c2)C1 (relative stereo) [Example 140, trans-N-(2,2-dimethyltetrahydro-2H-pyran-4-yl)-1-(3-((1-(2-ethyl-6-methylbenzoyl)-4-methoxypyrrolidin-3-yl)oxy)phenyl)-N-methylmethanesulfonamide]

The next lines start with the molecule.

Row | Compound | OX2R agonist activity (3 μM, %)
6 | COCC1CCCN1S(=O)(=O)Nc1cccc(O[C@@H]2CN(C(=O)c3cc(C)ccc3C)C[C@H]2OC)c1 (relative stereo) [Example 50, trans-N-(3-((1-(2,5-dimethylbenzoyl)-4-methoxypyrrolidin-3-yl)oxy)phenyl)-2-(methoxymethyl)pyrrolidine-1-sulfonamide] | 87%
7 | CO[C@@H]1CN(C(=O)c2cc(C)ccc2C)C[C@H]1Oc1cccc(CS(=O)(=O)N2CCCC2c2ccncc2)c1 (relative stereo) [Example 18, trans-(2,5-dimethylphenyl)(3-methoxy-4-(3-(((2-(pyridin-4-yl)pyrrolidin-1-yl)sulfonyl)methyl)phenoxy)pyrrolidin-1-yl)methanone] | 75%
8 | CO[C@@H]1CN(C(=O)c2cc(C)ccc2C)C[C@H]1Oc1cccc(CS(=O)(=O)N2CCC23CCOC3)c1 (relative stereo) [Example 19, trans-(2,5-dimethylphenyl)(3-methoxy-4-(3-((6-oxa-1-azaspiro[3.4]oct-1-ylsulfonyl)methyl)phenoxy)pyrrolidin-1-yl)methanone] | 67%
9 | COC(=O)C1COCCN1S(=O)(=O)Cc1cccc(O[C@@H]2CN(C(=O)c3cc(C)ccc3C)C[C@H]2OC)c1 (relative stereo) [Example 12, methyl trans-4-((3-((1-(2,5-dimethylbenzoyl)-4-methoxypyrrolidin-3-yl)oxy)benzyl)sulfonyl)morpholine-3-carboxylate] | 60%
10 | CO[C@@H]1CN(C(=O)c2cc(C)ccc2C)C[C@H]1Oc1cccc(CS(=O)(=O)N2CCCC2c2ncccn2)c1 (relative stereo) [Example 38, trans-(2,5-dimethylphenyl)(3-methoxy-4-(3-(((2-(pyrimidin-2-yl)pyrrolidin-1-yl)sulfonyl)methyl)phenoxy)pyrrolidin-1-yl)methanone] | 98%
